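Growth conditions: 96-well plates. Treatment: test compound, 48 hours, 5 concentrations. Analysis: linear interpolation between bracketing concentrations; unreached endpoints set to highest concentration. GI50: concentration for 50% inhibition of growth.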 Calls of active or inactive are those of the source. No stated cut-off is given here; in the data, active = GI50 up to about 1.1 µM and inactive = higher.
How the values were obtained:
Test in all cases: DTP human tumour cell line panel, 48 h
[1] = test system: A549
[2] = test system: BT-549
[3] = test system: COLO 205
[4] = test system: DU-145
[5] = test system: HCT-15
[6] = test system: K562
[7] = test system: MCF7
[8] = test system: MOLT-4
[9] = test system: NCI-H23
[10] = test system: NCI-H460
[11] = test system: NCI-H522
[12] = test system: OVCAR-3
[13] = test system: OVCAR-4
[14] = test system: OVCAR-8
[15] = test system: RPMI-8226
[16] = test system: SF-268
[17] = test system: SK-OV-3
[18] = test system: T47D
[19] = test system: UACC-62
[20] = test system: HCC 2998

Measured: GI50

CNS(=O)(=O)c1ccccc1C(=N)c1ccccc1
> 100 µM: [5]
inactive: [1] > 100 µM | [2] > 100 µM | [3] > 100 µM | [4] > 100 µM | [6] > 100 µM | [7] > 100 µM | [8] > 100 µM | [9] > 100 µM | [10] > 100 µM | [11] > 100 µM | [12] > 100 µM | [13] > 100 µM | [14] > 100 µM | [15] > 100 µM | [16] > 100 µM | [17] > 100 µM | [18] > 100 µM | [19] > 100 µM

CC1OC(O[C@H]2CC[C@]3(C)[C@H]4CC=C5[C@@H]6[C@@H](C)[C@H](C)CC[C@]6(C(=O)OC6OC(CO)C(O)C(O)C6O)CC[C@@]5(C(=O)O)[C@]4(C)CC[C@H]3C2(C)C)C(O)C(O)C1O (stereo partly specified)
inactive: [2] > 100 µM | [3] > 100 µM | [4] > 100 µM | [20] > 100 µM | [6] > 100 µM | [7] > 100 µM | [8] > 100 µM | [9] > 100 µM | [10] > 100 µM | [11] > 100 µM | [12] > 100 µM | [13] > 100 µM | [14] > 100 µM | [16] > 100 µM | [17] > 100 µM | [18] > 100 µM | [19] > 100 µM
> 100 µM: [5]

O=C(CC(=O)Nc1ccccc1)N/N=C/c1cc(/N=N/c2ccc(Br)cc2)ccc1O
3.33 µM: [5]
inactive: [1] > 10 µM | [2] > 10 µM | [3] 3.93 µM | [4] 5.16 µM | [20] 3.25 µM | [6] 2.96 µM | [7] 2.99 µM | [8] 1.35 µM | [9] 2.6 µM | [10] 3.28 µM | [13] 2.09 µM | [14] 3.93 µM | [15] 3.68 µM | [16] 4.5 µM | [17] 8.87 µM | [18] 4.38 µM | [19] 2.28 µM

C1COC2SC3=C(SC(=C4SC5=C(SCCS5)S4)S3)SC2O1 (stereo unspecified)
8.49 µM: [5]
inactive: [1] > 100 µM | [2] > 100 µM | [3] > 100 µM | [4] > 100 µM | [20] > 100 µM | [6] 73.1 µM | [7] > 100 µM | [8] > 100 µM | [9] > 100 µM | [10] > 100 µM | [11] 31.8 µM | [12] > 100 µM | [13] 31.3 µM | [14] > 100 µM | [16] > 100 µM | [17] 72.3 µM | [18] 60.4 µM | [19] 22 µM

Cc1cc2c(cc1Cl)SC(NS(=O)(=O)c1ccc(Cl)cc1)=NS2(=O)=O
> 100 µM: [5]
inactive: [1] > 100 µM | [2] 42.7 µM | [3] > 100 µM | [4] 83.9 µM | [6] 41.9 µM | [7] 56.8 µM | [8] 16.9 µM | [9] 30.5 µM | [10] 79.8 µM | [11] 21.7 µM | [12] 19.3 µM | [13] 39.4 µM | [15] 57 µM | [16] 85.9 µM | [17] > 100 µM | [18] > 100 µM | [19] > 100 µM

CC(=O)/C=C1\Nc2sc(C)c(C)c2C(=O)S1
inactive: [1] > 100 µM | [2] 53 µM | [3] > 100 µM | [4] 69.7 µM | [6] 60.4 µM | [7] 29.6 µM | [8] 10 µM | [9] 35.5 µM | [10] 10 µM | [12] 44.1 µM | [13] 42.2 µM | [14] 35.6 µM | [15] 38.6 µM | [16] 28.8 µM | [17] > 100 µM | [18] 47.2 µM | [19] 65.8 µM
28.9 µM: [5]

NCCNCCCNC(=O)c1cc(-c2ccccc2)nc2ccccc12
> 100 µM: [5]
inactive: [1] 41.6 µM | [2] 55.8 µM | [3] 16.2 µM | [4] > 100 µM | [20] 19.6 µM | [6] 23.1 µM | [7] 45.4 µM | [8] 22.1 µM | [9] 30.6 µM | [10] 35.2 µM | [11] 17.6 µM | [12] > 100 µM | [14] 85.5 µM | [15] 54 µM | [16] 26.1 µM | [17] 65 µM | [18] 38.5 µM | [19] 19.9 µM

O=C(c1ccccc1)c1ccc2[nH]c(-c3c(Cl)c(Cl)c(Cl)c(Cl)c3C(=O)N/N=C/c3cccc(Oc4ccccc4)c3)nc2c1
inactive: [1] > 100 µM | [2] 93.8 µM | [3] > 100 µM | [4] > 100 µM | [6] 46.5 µM | [7] 42 µM | [8] 50.4 µM | [9] 74.1 µM | [11] 45 µM | [12] 75.7 µM | [13] 99.3 µM | [14] 75.2 µM | [15] > 100 µM | [16] 76.7 µM | [17] > 100 µM | [18] 36.1 µM
45.4 µM: [5]

CCN1CCC(C)OP1(=O)Cc1ccccc1 (stereo unspecified)
inactive: [1] > 100 µM | [2] > 100 µM | [3] > 100 µM | [4] > 100 µM | [20] > 100 µM | [6] > 100 µM | [7] > 100 µM | [9] > 100 µM | [10] > 100 µM | [12] 46.5 µM | [13] > 100 µM | [14] > 100 µM | [15] > 100 µM | [16] > 100 µM | [17] > 100 µM | [18] > 100 µM | [19] > 100 µM
> 100 µM: [5]

Cc1ccc(C2=C(C#N)C(=O)N3CCN=C3S2)cc1
> 100 µM: [5]
inactive: [1] > 100 µM | [2] > 100 µM | [3] > 100 µM | [4] > 100 µM | [20] > 100 µM | [6] 58.2 µM | [7] > 100 µM | [8] > 100 µM | [9] > 100 µM | [10] > 100 µM | [11] > 100 µM | [12] > 100 µM | [13] > 100 µM | [14] > 100 µM | [17] > 100 µM | [18] > 100 µM | [19] > 100 µM

O=C(O)c1cc(O)c2c(c1)Cc1cccc(O)c1C2=O
17.2 µM: [5]
inactive: [1] 31.4 µM | [2] 30.5 µM | [3] 24.2 µM | [4] 36.5 µM | [20] 41.4 µM | [6] 40 µM | [7] 30.1 µM | [8] 22.7 µM | [9] 28.1 µM | [10] 23.3 µM | [12] 17.9 µM | [13] 38 µM | [14] 21.3 µM | [15] 21.9 µM | [16] 25.4 µM | [17] 30.5 µM | [18] 38.6 µM | [19] 19.1 µM

From ChEMBL document CHEMBL1201862, “PubChem BioAssay data set” (2004)
